The source of these data is ChEMBL document CHEMBL3301448, “MMV Malaria Box screening against Toxoplasma gondii and Entamoeba histolytica”.

One assay concerns Toxoplasma gondii. As to the kind of experiment: MMV: A total of 100ul of inoculum was added to each well (parasite/cell ratio, ~10:1; final volume, 200 ul). Six hours after inoculation, nonadherent parasites were removed, and 100 ul of complete DMEM (1% penicillin-streptomycin, 3% FBS) supplemented with inhibitors at different concentrations (2-fold serial dilutions starting from 30 uM) was added to all except the negative-control wells. Positive controls, consisting of pyrimethamine (PYR) and sulfadiazine (SDZ) (20-mg/ml stocks in DMSO), were tested at a 2mg/ml final concentration. Each test was performed in triplicate. Format: functional, organism-based. The following applies: 6 h.

A further assay concerns Entamoeba histolytica. The experiment in a line: MMV: Primary screening was performed with each compound at a 30 uM final concentration and in triplicate in sealed 96-well polystyrene microtiter plates. Parasite inocula (100 ul) comprising 20000 parasites/ml were added to each well and grown at 37 degrees C in a humidified atmosphere of 5% CO2 for 72 h. Positive controls consisted of metronidazole at 1 mg/ml. The growth of E. histolytica trophozoites in each well was determined microscopically by measuring the diameters of the confluent cells in drug-containing wells relative to those in the nega- tive-control wells. Format: functional, organism-based.

Turning to `O=C1c2ccccc2-c2nnc(-c3ccc(Br)cc3)cc21`, the IC50 in the assay with Toxoplasma gondii and with Entamoeba histolytica was more than 30 µM throughout.

Regarding `CCOC(=O)C1=C(C)N=c2sc(=Cc3cc(Cl)ccc3O)c(=O)n2C1c1ccc(OC)cc1` (stereo not drawn), the IC50 – broadly, the concentration needed to halve the response being measured – in the assay on Toxoplasma gondii was 24.9 µM; in the assay on Entamoeba histolytica it was more than 30 µM.

Regarding `Cc1nc2ccccc2c(O)c1CC=C(Cl)Cl`, the 50% inhibitory concentration (IC50) with Toxoplasma gondii and in the assay with Entamoeba histolytica was more than 30 µM each time.

With `COc1ccc2nc(N)nc(C)c2c1`, the half-inhibitory concentration (IC50) in the assay on Toxoplasma gondii and in the assay with Entamoeba histolytica was more than 30 µM throughout.

On to `CC(=O)c1ccc(NC(=O)CSc2nc(-c3ccccc3Cl)ns2)cc1`, for which the IC50 in the assay with Toxoplasma gondii is 14.9 µM; in the assay with Entamoeba histolytica, more than 30 µM.

On to `COc1ccc(C(=O)NC(c2ccc(Cl)cc2Cl)c2cc(Cl)c3cccnc3c2O)cc1` (stereo not drawn), for which the IC50 in the assay with Toxoplasma gondii and with Entamoeba histolytica was more than 30 µM in each case.

Turning to `O=C(NCCCN1CCC(N2CCCCC2)CC1)C1=Cc2cc(Br)ccc2OC1`, the concentration for half-maximal inhibition (IC50) in the assay with Toxoplasma gondii and in the assay with Entamoeba histolytica was more than 30 µM in each case.

Consider `Cc1ccnc(NC(c2cccc(OCc3ccccc3)c2)c2ccc3cccnc3c2O)c1` (stereo not drawn), for which the half-inhibitory concentration (IC50) in the assay with Toxoplasma gondii and in the assay on Entamoeba histolytica was more than 30 µM in each case.

As for `Cc1ccc(OCCCCCCNCCO)c(C)c1`, the IC50 in the assay with Toxoplasma gondii and with Entamoeba histolytica was more than 30 µM throughout.

`CCOC(=O)c1cnc2ccc(Cl)cc2c1NCCCN(C)C`: the 50% inhibitory concentration (IC50) in the assay with Toxoplasma gondii and in the assay on Entamoeba histolytica was more than 30 µM throughout.

In the case of `O=C1c2ccccc2C2=Nc3ccccc3SC(c3cccc(F)c3)C12` (stereo not drawn), the IC50 was 18.7 µM in the assay on Toxoplasma gondii and more than 30 µM with Entamoeba histolytica.

On to `Cc1ccccc1OCCSc1nc2ccc(NC(=O)c3ccccc3)cc2s1`, for which the half-maximal inhibitory concentration (IC50) in the assay with Toxoplasma gondii and in the assay on Entamoeba histolytica was more than 30 µM throughout.

Regarding `CC(C)(C)c1ccc(C(=O)Nc2c3c(nn2-c2cccc(Cl)c2)CSC3)cc1`, the half-maximal inhibitory concentration (IC50) in the assay with Toxoplasma gondii and with Entamoeba histolytica was more than 30 µM each time.

Turning to `CCOc1cc2c(cc1OCC)C(c1cc(Cl)c(O)c(OCC)c1)NCC2` (stereo not drawn), the IC50 in the assay with Toxoplasma gondii and in the assay on Entamoeba histolytica was more than 30 µM in each case.

As to `COc1ccc(N2CCN(C(CNC(=O)CC(C)(C)C)c3ccc4c(c3)OCO4)CC2)cc1` (stereo not drawn), the IC50 in the assay with Toxoplasma gondii and in the assay on Entamoeba histolytica was more than 30 µM throughout.

Consider `CCCCCCn1c(=N)n(CC(O)COc2cccc(C)c2)c2ccccc21` (stereo not drawn), for which the concentration for half-maximal inhibition (IC50) in the assay with Toxoplasma gondii and in the assay with Entamoeba histolytica was more than 30 µM each time.

For `CCOC(=O)C1(Cc2ccccc2)CCN(Cc2cccc(OC)c2O)CC1`, the IC50 with Toxoplasma gondii and with Entamoeba histolytica was more than 30 µM throughout.

Regarding `Oc1ccc(C(=C(Cl)Cl)c2ccc(O)cc2)cc1`, the IC50 in the assay with Toxoplasma gondii and with Entamoeba histolytica was more than 30 µM throughout.

As to `CC(C)(C)c1ccc2c(c1)CN(Cc1ccc(Cl)cc1)CO2`, the figures for the half-maximal inhibitory concentration (IC50) in the assay on Toxoplasma gondii and with Entamoeba histolytica were 20.4 µM and more than 30 µM, respectively.

Regarding `CCCCC(O)(c1ccc(Cl)cc1)C(CN1CCOCC1)c1ccc(Cl)cc1` (stereo not drawn), the IC50 in the assay on Toxoplasma gondii and in the assay on Entamoeba histolytica was more than 30 µM throughout.

`COc1ccc(OC)c(C2C3=C(CC(C)(C)CC3=O)N(c3ccc(Cl)c(Cl)c3)C3=C2C(=O)CC(C)(C)C3)c1`: the IC50 in the assay with Toxoplasma gondii and in the assay on Entamoeba histolytica was more than 30 µM throughout.

Take `COc1ccc(CN2CCN(Cc3ccccc3)CC2)c(O)c1`: the IC50 in the assay on Toxoplasma gondii and with Entamoeba histolytica was more than 30 µM in each case.

In the case of `OC1CCCCC1C1(NC(=S)Nc2ccccc2)CCCCC1` (stereo not drawn), the IC50 with Toxoplasma gondii and with Entamoeba histolytica was more than 30 µM each time.

For the molecule `OC1=C2C(=Nc3ccccc3SC2c2ccc(Br)cc2)c2ccccc21` (stereo not drawn), the IC50 in the assay on Toxoplasma gondii and in the assay with Entamoeba histolytica was more than 30 µM each time.

With `COc1ccc(C)c2sc(N(Cc3cccnc3)C(=O)c3ccc(C#N)cc3)nc12`, the IC50 with Toxoplasma gondii and in the assay on Entamoeba histolytica was more than 30 µM throughout.

In the case of `COc1ccc(C(=O)C2CC2c2ccc(Cl)cc2)cc1` (stereo not drawn), the 50% inhibitory concentration (IC50) in the assay with Toxoplasma gondii and with Entamoeba histolytica was more than 30 µM throughout.

On to `CCCCCn1c(=N)n(CC(O)COc2cccc(C)c2)c2ccccc21` (stereo not drawn), for which the figures for the half-inhibitory concentration (IC50) in the assay with Toxoplasma gondii and in the assay on Entamoeba histolytica were 17.9 µM and more than 30 µM, respectively.

As to `CCN1CCN(c2c(C(=O)c3ccccc3)cnc3cc(OC)c(OC)cc23)CC1`, the half-inhibitory concentration (IC50) in the assay on Toxoplasma gondii and with Entamoeba histolytica was more than 30 µM in each case.

In the case of `Cc1ccc(S(=O)(=O)c2c(COC(=O)c3cccc(C)c3)c(-c3ccccc3)nn2C)cc1`, the IC50 in the assay with Toxoplasma gondii and in the assay on Entamoeba histolytica was more than 30 µM each time.
